Assay results as given in ChEMBL document CHEMBL4651402, “Screening of ~5500 FDA-approved drugs and clinical candidates for anti-SARS-CoV-2 activity” (2021).
pIC50: −log10 of the molar value. Where a name gives a salt, the structure may show the parent alone.

Tested on: SARS-CoV-2
Assay: microbe, parasite or virus in culture
Details: Severe acute respiratory syndrome coronavirus 2, Vero C1008, 48 h; for IC50: read-out: pIC50 (converted)

CN1C2=CC(=O)/C(=N\NC(N)=O)C=C2CC1S(=O)(=O)O (configuration not stated) [CARBAZOCHROME SULFONIC ACID]
pIC50: < 4.70
IC50: > 20 µM

CON(C)C(=O)N1N=C(c2cc(F)ccc2F)S[C@@]1(CCCN)c1ccccc1 [FILANESIB]
pIC50: < 4.70
IC50: > 20 µM

CC(C)[C@H](N)C(=O)O[C@@H]1C[C@@H](n2ccc(N)nc2=O)O[C@H]1CO [VALTORCITABINE]
pIC50: < 4.70
IC50: > 20 µM

COc1ccc2cc([C@@H](C)C(=O)O)ccc2c1
pIC50: < 4.70
IC50: > 20 µM

CN(C)CCOC(c1ccccc1)c1ccccc1.Cn1c(=O)c2[nH]c(Cl)nc2n(C)c1=O [DIMENHYDRINATE]
pIC50: < 4.70
IC50: > 20 µM

CC(O)(CC(=O)O)CC(=O)O [MEGLUTOL]
pIC50: < 4.70
IC50: > 20 µM

CC(CCC(=O)NCCS(=O)(=O)O)C1CCC2C3C[C@H](O)[C@@H]4C[C@H](O)CC[C@]4(C)C3CC[C@]12C (some centres not stated)
pIC50: < 4.70
IC50: > 20 µM

CC(=O)O[C@]1(C(C)=O)CC[C@H]2[C@@H]3C=C(C)C4=CC(=O)CC[C@]4(C)[C@H]3CC[C@@]21C [MEGESTROL ACETATE]
pIC50: < 4.70
IC50: > 20 µM

O=C(O)CN1C(=O)c2cccc3cccc(c23)C1=O [ALRESTATIN]
pIC50: < 4.70
IC50: > 20 µM

C[C@@H]([C@@H](O)c1ccc(O)cc1)N1CCC(O)(c2ccccc2)CC1 [TRAXOPRODIL]
pIC50: < 4.70
IC50: > 20 µM

CN1C[C@H](CNC(=O)OCc2ccccc2)C[C@@H]2c3cccc4c3c(cn4C)C[C@H]21 [METERGOLINE]
pIC50: < 4.70
IC50: > 20 µM

Cc1nc2n(c(=O)c1CCN1CCC(c3noc4cc(F)ccc34)CC1)CCCC2 [RISPERIDONE]
pIC50: < 4.70
IC50: > 20 µM

Cc1c(NC(=O)C(C)N(C)C)c(=O)n(-c2ccccc2)n1C (configuration not stated)
pIC50: < 4.70
IC50: > 20 µM

CC1=NN(c2ccccc2)C(=O)C1 [EDARAVONE]
pIC50: < 4.70
IC50: > 20 µM

NC(=O)N1C(=O)/C(=C(\O)c2cccs2)c2cc(Cl)ccc21 [TENIDAP]
pIC50: < 4.70
IC50: > 20 µM

CC(C(=O)O)c1cccc(Oc2ccccc2)c1 (configuration not stated) [FENOPROFEN]
pIC50: < 4.70
IC50: > 20 µM

COC(=O)/C=C/C(=O)O [MONOMETHYL FUMARATE]
pIC50: < 4.70
IC50: > 20 µM

CN(C)C1CC(c2ccccc2)c2ccccc21 (configuration not stated)
pIC50: < 4.70
IC50: > 20 µM

CCC(=O)C(CCN1CCCCC1)(c1ccccc1)c1ccccc1 [NORPIPANONE]
pIC50: < 4.70
IC50: > 20 µM

CN(C)C1CCc2[nH]c3c(F)cc(F)cc3c2C1 (configuration not stated) [FLUCINDOLE]
pIC50: < 4.70
IC50: > 20 µM

COc1ccc(CN(CCN(C)C)c2ncccn2)cc1 [THONZYLAMINE]
pIC50: < 4.70
IC50: > 20 µM

CNC=O
pIC50: < 4.70
IC50: > 20 µM

C=CCN1CC[C@]23c4c5ccc(O)c4O[C@H]2C(=O)CC[C@@]3(O)[C@H]1C5 [NALOXONE]
pIC50: < 4.70
IC50: > 20 µM

O=C(O)Cc1sc2nc3ccccc3n2c1-c1ccc(Cl)cc1 [TILOMISOLE]
pIC50: < 4.70
IC50: > 20 µM

NS(=O)(=O)c1cc(C(=O)O)cc(N2CCCC2)c1Oc1ccccc1 [PIRETANIDE]
pIC50: < 4.70
IC50: > 20 µM

CC(=O)Nc1cccc2c1c(Sc1ccc(Cl)cc1)c(C)n2CC(=O)O [AZD1981]
pIC50: < 4.70
IC50: > 20 µM

Oc1ccc2[nH]cc(CCCCN3CC=C(c4ccccc4)CC3)c2c1 [ROXINDOLE]
pIC50: < 4.70
IC50: > 20 µM

COc1cccc(C(=O)CCNC(C)C(O)c2ccccc2)c1 (configuration not stated)
pIC50: < 4.70
IC50: > 20 µM

COC(=O)[C@H](c1ccccc1)N1CCC(c2ccc(NC(=O)c3ccccc3-c3ccc(C(F)(F)F)cc3)cc2)CC1 [USISTAPIDE]
pIC50: < 4.70
IC50: > 20 µM

COC1=C[C@@H]2C3=C([C@@H]2C1=O)[C@@H](NC(C)=O)CCc1cc(OC)c(OC)c(OC)c13
pIC50: < 4.70
IC50: > 20 µM

COC(=O)[C@@H]1[C@H]2C[C@H]3c4[nH]c5ccccc5c4CCN3C[C@@H]2CC[C@@H]1O [YOHIMBINE]
pIC50: < 4.70
IC50: > 20 µM

COc1c2occc2c(OC)c2c(=O)cc(C)oc12 [KHELLIN]
pIC50: < 4.70
IC50: > 20 µM

C=CC(C)NC(=S)NNC(=S)NC (configuration not stated) [METHALLIBURE]
pIC50: < 4.70
IC50: > 20 µM

C[C@@H]1NC(=O)CO[C@@H]1c1ccccc1
pIC50: < 4.70
IC50: > 20 µM

OC(CNc1ccccn1)c1ccccc1 (configuration not stated) [PHENYRAMIDOL]
pIC50: < 4.70
IC50: > 20 µM

CN(C)C1CCc2[nH]c3ccccc3c2C1 (configuration not stated) [CYCLINDOLE]
pIC50: < 4.70
IC50: > 20 µM

CC1(C)N=C(N)N=C(N)N1c1ccc(Cl)cc1 [CYCLOGUANIL]
pIC50: < 4.70
IC50: > 20 µM

Cc1nc2c(C)cccn2c(=O)c1CCN1CCC(c2noc3cc(F)ccc23)CC1 [OCAPERIDONE]
pIC50: < 4.70
IC50: > 20 µM

O=C(CCCN1CCC(C(=O)c2ccc(Cl)cc2)CC1)c1ccc(F)cc1 [CLOROPERONE]
pIC50: < 4.70
IC50: > 20 µM

CN(C)CCCN1c2ccccc2CCc2ccccc21 [IMIPRAMINE]
pIC50: < 4.70
IC50: > 20 µM

CO/N=C(\C#N)[C@@H]1CN2CCC1CC2
pIC50: < 4.70
IC50: > 20 µM

CC1(C)S[C@@H]2[C@H](NC(=O)C3(N)CCCCC3)C(=O)N2[C@H]1C(=O)O [CYCLACILLIN]
pIC50: < 4.70
IC50: > 20 µM

CCCNC(C)C(=O)Nc1ccccc1C (configuration not stated) [PRILOCAINE]
pIC50: < 4.70
IC50: > 20 µM

Cn1cnc2[nH]c(=O)[nH]c(=O)c21 [7-METHYLXANTHINE]
pIC50: < 4.70
IC50: > 20 µM

CCc1nc(C(N)=O)c(Nc2ccc(N3CCC(N4CCN(C)CC4)CC3)c(OC)c2)nc1NC1CCOCC1 [GILTERITINIB]
pIC50: < 4.70
IC50: > 20 µM

Cn1cc(-c2cnn3c(N)c(Br)c([C@@H]4CCCNC4)nc23)cn1 [SCH-900776]
pIC50: < 4.70
IC50: > 20 µM

COC1C(OC(=O)/C=C/C=C/C=C/C=C/C(=O)O)CCC2(CO2)C1C1(C)OC1CC=C(C)C (configuration not stated)
pIC50: < 4.70
IC50: > 20 µM

CNC(=O)c1c(-c2ccc(F)cc2)oc2cc(N(CCO)S(C)(=O)=O)c(C3CC3)cc12 [NESBUVIR]
pIC50: < 4.70
IC50: > 20 µM

Cn1nnc(-c2ccc(-c3ccc(N4C[C@H](COP(=O)(O)O)OC4=O)cc3F)cn2)n1 [TEDIZOLID PHOSPHATE]
pIC50: < 4.70
IC50: > 20 µM

C=CCN1CCC23c4c5ccc(O)c4OC2C(O)C=CC3C1C5 (configuration not stated)
pIC50: < 4.70
IC50: > 20 µM

C[N+](C)(C)CCOC(N)=O [CARBAMOYLCHOLINE]
pIC50: < 4.70
IC50: > 20 µM

CC(CC1c2ccccc2CCc2ccccc21)CN(C)C (configuration not stated) [BUTRIPTYLINE]
pIC50: < 4.70
IC50: > 20 µM

CC(CN(C)C)CN1c2ccccc2CCc2ccccc21 (configuration not stated) [TRIMIPRAMINE]
pIC50: < 4.70
IC50: > 20 µM

CC(C)NC[C@@H](C(=O)N1CCN(c2ncnc3c2[C@H](C)C[C@H]3O)CC1)c1ccc(Cl)cc1 [IPATASERTIB]
pIC50: < 4.70
IC50: > 20 µM

C=CCNS(=O)(=O)c1cc(S(N)(=O)=O)c(Cl)cc1/N=C/C=C(\C)O
pIC50: < 4.70
IC50: > 20 µM

CCN(C)C(=O)Oc1cccc([C@H](C)N(C)C)c1 [RIVASTIGMINE]
pIC50: < 4.70
IC50: > 20 µM
